Target: T1, 5-hydroxytryptamine receptor 2C (Homo sapiens, UniProt P28335)
T1 sequence (P28335 whole entry): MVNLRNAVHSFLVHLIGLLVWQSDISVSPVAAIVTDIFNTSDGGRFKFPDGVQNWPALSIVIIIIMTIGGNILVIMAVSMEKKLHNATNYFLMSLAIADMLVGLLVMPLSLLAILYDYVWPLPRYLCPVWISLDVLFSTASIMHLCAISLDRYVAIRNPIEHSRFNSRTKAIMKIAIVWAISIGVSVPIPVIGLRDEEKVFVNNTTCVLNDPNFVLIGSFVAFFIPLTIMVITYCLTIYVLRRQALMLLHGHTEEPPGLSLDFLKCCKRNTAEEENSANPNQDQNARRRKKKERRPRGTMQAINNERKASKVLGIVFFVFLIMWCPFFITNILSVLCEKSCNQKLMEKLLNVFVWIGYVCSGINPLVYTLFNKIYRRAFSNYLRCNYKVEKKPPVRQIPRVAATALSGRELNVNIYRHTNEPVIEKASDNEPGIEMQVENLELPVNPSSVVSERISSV
Experiment: Agonist activity at human 5HT2C receptor expressed in HEK293 cells assessed as calcium flux measured every sec for 3 mins by FLIPR assay

With NC[C@H]1C[C@@H]1c1ccccc1OCC1CC1 the EC50 was 120 nM.

— BindingDB's records for doi:10.1021/ml200206z (2011)
